Experimental data: patent EP0171342A1, “Substituted 2-(1-amino-akylidenyl)1,3-indane diones, process for their preparation and their therapeutical use” (priority 1984, dated 1986)
Values after ≈ are worked out from the molar mass of the structure shown. Where two headings read alike, the source gives them in different places.

Key:
souris [1] = assay: Acute toxicity (mortality, LD50) in mice; format: in vivo; conditions: mouse
[2] = tested on: rat soumis à une surcharge hydrique; assay: Diuretic activity in rats given a water overload, oral; format: in vivo; conditions: rat, water overload, oral; for response vs control in vivo at 20 mg/kg: read-out: facteur multipliant l'excrétion urinaire du sodium
Procedure, shortened: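 Oral dosing (5–80 mg/kg) to rats under water overload, or to rats and mice under saline overload. Urine volume and excreted sodium and potassium measured over 6 h, expressed as change versus control animals; Na/K ratio also derived.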

[3] = tested on: rat Wistar soumis à une surcharge saline; assay: Diuretic activity in selected Wistar rats given a saline overload (modified Wiebelhaus test); format: in vivo
Procedure, shortened: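 Selected Wistar rats under saline overload (modified Wiebelhaus test) received compound at 20 mg/kg. Urine volume and sodium excretion were measured over 6 h, expressed as % increase, with Na/K ratio also assessed.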

[4] = tested on: oedème induit par l'injection intraplantaire de carragénine chez le rat; assay: Anti-inflammatory activity: carrageenan paw oedema in rats; format: in vivo; conditions: oral 1 h before carrageenan, measured 3 h after, dose 10b mg/kg [sic]
Protocol: L'activité antiinflammatoire a été déterminée chez le rat par la mesure de l'inhibition de l'oedème induit par l'injection intraplantaire de 0,1 ml d'une suspension à 1% de carragénine chez le rat. Les produits à tester sont administrés par voie orale lh avant l'injection de carragénine et la mesure est réalisée 3h après cette injection. Les COR3789, COR3792, COR4003, COR4008 et COR4010 administrés à 10b mg/kg entrainent respectivement 43, 42, 41, 38 et 39% d'inhibition. Administré à 200 mg/kg, le COR3773 entraine 53% d'inhibition. L'aspirine administrée dans les mêmes conditions à 150 mg/kg entraine 40% d'inhibition de l'oedème.

[5] = tested on: poumon de cobaye isolé perfusé; assay: Bronchodilator activity: isolated perfused guinea pig lung contracted by methacholine; conditions: flow of Tyrode solution, lung contracted by 0,05 microg/ml methacholine; read-out: concentration qui augmente ce débit de 50%
Text: L'activité bronchodilatatrice a été déterminée in vitro par la mesure du débit d'une solution de Tyrode à travers un poumon de cobaye isolé perfusé, contracté par l'addition au fluide de perfusion de 0,05 microg/ml de méthacholine. Les COR3760, COR3789, COR3792, COR4003, COR4008, COR4010 et COR4014 utilisés respectivement aux concentrations de 50, 50, 100, 10, 50, 50 et 10 microg/ml augmentent ce débit de 50%. L'aminophylline entraine cette même activité à la concentration de 100 microg/ml.

[6] = tested on: segments d'iléon de cobaye isolés; assay: Anticholinergic activity: acetylcholine-induced contractions of isolated guinea pig ileum; conditions: Cavia porcellus; contractions induced by 0,1 microg/ml acetylcholine; read-out: concentration qui inhibe ces contractions de 80%
Text: L'activité anticholinergique a été appréciée par la mesure des contractions induites par 0,1 microg/ml d'acétylcholine sur des segments d'iléon de cobaye isolés. Les COR3760, COR3789, COR3792, COR4003, COR4008, COR4010, COR4014 utilisés respectivement aux concentrations de 50, 25, 25, 50, 25, 10, 25 microg/ml inhibent ces contractions de 80%.

[7] = molecular target: oreillettes droites de cobaye (Cavia porcellus, UniProt P47747); assay: Anti-H2 activity: histamine-induced chronotropic effect on unstimulated guinea pig right atria
oreillettes droites de cobaye, sequence (P47747 whole entry): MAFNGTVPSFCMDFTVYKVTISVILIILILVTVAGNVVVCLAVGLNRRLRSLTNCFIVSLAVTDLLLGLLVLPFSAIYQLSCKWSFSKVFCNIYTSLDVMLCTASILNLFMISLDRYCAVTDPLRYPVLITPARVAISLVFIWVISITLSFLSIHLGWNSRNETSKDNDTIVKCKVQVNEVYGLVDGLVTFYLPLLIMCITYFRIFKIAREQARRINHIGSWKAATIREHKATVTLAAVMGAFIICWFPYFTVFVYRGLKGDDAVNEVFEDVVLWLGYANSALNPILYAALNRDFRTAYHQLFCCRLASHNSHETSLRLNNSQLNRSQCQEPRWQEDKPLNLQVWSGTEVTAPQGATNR

[8] = tested on: segments isolés d'iléon de cobaye; assay: Antihistamine activity: histamine-induced contraction of isolated guinea pig ileum; conditions: 50 microg/ml, response induced by 0,5 microg/ml histamine
Text: L'activité antihistaminique a été appréciée in vitro par l'inhibition de la réponse contractile de segments isolés d'iléon de cobaye induite par 0,5 microg/ml d'histamine.

[9] = Acute toxicity (mortality, LD50) in mice; format: in vivo; conditions: in vivo; mouse, oral, in solution in Tween 20%; read-out: DL50 (the source's name)
[10] = tested on: souris soumis à une surcharge saline; assay: Diuretic activity in mice given a saline overload, oral; format: in vivo; conditions: mouse
Protocol: (§1) L'activité diurétique a été déterminée sur plusieurs modèles expérimentaux. Chez le rat soumis à une surcharge hydrique, administrés par voie orale à la dose de 20 mg/kg, le COR3760, le COR3789, le COR3792, le COR4002, le COR4003, le COR4009, le COR4010, le COR4012 et le COR4014 multiplient l'excrétion urinaire du sodium par respectivement un facteur 2,9 - 3,1 - 5,9 - 2,6 - 7,2 - 3,5 - 3,8 - 2,9 - 2,4. Administrés à la dose de 10 mg/kg, dans les mêmes conditions, les COR3760, COR3789, COR3792, COR4003 et COR4010 multiplient l'excrétion sodique par respectivement 2,3 - 2,9 - 2,8 - 2,4 et 2,5. La spironolactone multiplie quant à elle l'excrétion sodique d'un facteur 3,6 à la dose de 20 mg/kg. Administré à la dose de 5 mg/kg dans les mêmes conditions, le COR3792 multiplie l'excrétion sodique par 3,3. Administré par voie orale chez le rat ou la souris soumis à une surcharge saline, le COR3760 augmente l'excrétion urinaire volumétrique mesurée à la sixième heure de respectivement 49, 119 et 134% chez la souris et 28, 84 et 116% chez le rat après administration de 10, 20, et 40 mg/kg. Le COR3760 a été administré par voie orale au rat soumis à une surcharge hydrique et l'excrétion urinaire volumétrique, le sodium et le potassium excrétés ont été mesurés sur une période de 6 heures; ces paramètres ont varié de respectivement +17%, +102%, +165% à 10 mg/kg, +19%, +147%, +180% à 20 mg/kg et +36%, +415% et +239% à 40 mg/kg; le rapport Na/K passe de 0,56 chez les animaux témoins à 0,4 à 10 mg/kg, 0,49 à 20 mg/kg et 0, 8 à 40 mg/ kg. Au cours d'une seconde expérimentation, le COR3760 a entrainé des variations de +19%, +157%, +70% à 40 mg/kg, +19%, +319%, +90% à 60 mg/kg et +29%, +472% et +77% à 80 mg/kg; le rapport Na/K passe de 0,59 chez les animaux témoins à 0,88 à 40, 1,15 à 60 et 1,88 à 80 mg/kg.

[11] = tested on: rat soumis à une surcharge saline; assay: Diuretic activity in rats given a saline overload, oral; format: in vivo
Protocol: as §1

souris [12] = assay: Antidepressant activity: potentiation of yohimbine toxicity in mice; format: in vivo; conditions: mouse, yohimbine 15 mg/kg s.c. (non-lethal dose), test product oral 100 mg/kg
Protocol: (§2) L'activité antidépressive a été déterminée dans le test de potentialisation de la toxicité de la yohimbine et dans le test de l'inhibition du ptosis induit par la réserpine.
(§3) On injecte par voie sous cutanée à des souris, lh avant l'administration par voie orale du produit à tester, une dose non léthale de yohimbine soit 15 mg/kg. Le COR3760 administré à la dose de 100 mg/kg entraine 80% de mortalité dans ces conditions. Des souris reçoivent par voie orale le produit à tester 90 mn avant l'injection par voie intrapéritonéale de 5 mg/kg de réserpine solubilisée. On cote le ptosis selon un index allant de 0 à 6, la cote 0 correspondant à un ptosis maximum et la cote 6 à l'absence de ptosis. Les COR3760 et COR4011 conduisent dans les conditions de l'expérience à un ptosis coté à 4 pour une dose de respectivement 200 et 50 mg/kg.

souris [13] = assay: Antidepressant activity: inhibition of reserpine-induced ptosis in mice; format: in vivo; conditions: mouse, oral 200 mg/kg 90 min before reserpine 5 mg/kg i.p.; index 0 (maximum ptosis) to 6 (no ptosis)
Protocol: as §2, §3

[14] = first experiment, 10 mg/kg, 6 hours
[15] = first experiment, 20 mg/kg, 6 hours
[16] = first experiment, 40 mg/kg, 6 hours

## CCC(NC)=C1C(=O)c2ccccc2C1=O [COR4003, (Méthylamino-1 propylidényl)-2 indanedione-1,3]
Souris [1]; intraperitoneal, 200 mg/kg
  mortalité: aucune mortalité
Souris [1]; oral, 300 mg/kg
  mortalité: aucune mortalité
[2]; 10 mg/kg
  facteur multipliant l'excrétion sodique: 2,4
[2]; 20 mg/kg
  response vs control in vivo at 20 mg/kg: 720%
[3]; 6 h, read-out: augmentation de l'excrétion urinaire volumétrique mesurée au bout de 6 heures
  change in vivo at 20 mg/kg: 56%
[3]; read-out: augmentation de l'excrétion urinaire du sodium
  change in vivo at 20 mg/kg: 56%
[4]
  inhibition de l'oedème: 41%
[5]
  EC50: 10 µg/mL (≈ 46.5 µM)
[6]
  IC80: 50 µg/mL (≈ 232 µM)
[7]; at the concentration inhibiting the histamine effect by 50 % (COR4003 100, COR4011 50 microg/ml)
  effet chronotrope négatif intrinsèque: ne présentant pas d'effet chronotrope négatif intrinsèque
[7]; chronotropic effect induced by 5 microg/ml histamine, read-out: concentration qui inhibe de 50 % cet effet chronotrope (converted)
  IC50: 465 µM
[8]
  inhibition de la réponse contractile: inhibe cette réponse

## CNC(C)=C1C(=O)c2ccccc2C1=O [COR3760, (Méthylamino-1 éthylidène)-2 indanedione-1,3]
[9]
  LD50: 736 mg/kg
Souris [1]; intraperitoneal, 200 mg/kg
  mortalité: aucune mortalité
Souris [1]; oral, 300 mg/kg
  mortalité: aucune mortalité
[2]; first experiment, 10 mg/kg (controls 0,56)
  rapport Na/K: 0,4
[2]; [14]
  variation de l'excrétion urinaire volumétrique: +17%
  variation du potassium excrété: +165%
  variation du sodium excrété: +102%
[2]; first experiment, 20 mg/kg (controls 0,56)
  rapport Na/K: 0,49
[2]; [15]
  variation de l'excrétion urinaire volumétrique: +19%
  variation du potassium excrété: +180%
  variation du sodium excrété: +147%
[2]; [16]
  variation de l'excrétion urinaire volumétrique: +36%
  variation du potassium excrété: +239%
  variation du sodium excrété: +415%
[2]; 10 mg/kg
  facteur multipliant l'excrétion sodique: 2,3
[2]; 20 mg/kg
  response vs control in vivo at 20 mg/kg: 290%
[2]; second experiment, 40 mg/kg
  variation de l'excrétion urinaire volumétrique: +19%
  variation du potassium excrété: +70%
  variation du sodium excrété: +157%
[2]; second experiment, 40 mg/kg (controls 0,59)
  rapport Na/K: 0,88
[2]; second experiment, 60 mg/kg
  variation de l'excrétion urinaire volumétrique: +19%
  variation du potassium excrété: +90%
  variation du sodium excrété: +319%
[2]; second experiment, 60 mg/kg (controls 0,59)
  rapport Na/K: 1,15
[2]; second experiment, 80 mg/kg
  variation de l'excrétion urinaire volumétrique: +29%
  variation du potassium excrété: +77%
  variation du sodium excrété: +472%
[2]; second experiment, 80 mg/kg (controls 0,59)
  rapport Na/K: 1,88
[10]; 10 mg/kg
  augmentation de l'excrétion urinaire volumétrique mesurée à la sixième heure: 49%
[10]; 20 mg/kg
  augmentation de l'excrétion urinaire volumétrique mesurée à la sixième heure: 119%
[10]; 40 mg/kg
  augmentation de l'excrétion urinaire volumétrique mesurée à la sixième heure: 134%
[11]; 10 mg/kg
  augmentation de l'excrétion urinaire volumétrique mesurée à la sixième heure: 28%
[11]; 20 mg/kg
  augmentation de l'excrétion urinaire volumétrique mesurée à la sixième heure: 84%
[11]; 40 mg/kg
  augmentation de l'excrétion urinaire volumétrique mesurée à la sixième heure: 116%
[5]
  EC50: 50 µg/mL (≈ 248 µM)
[6]
  IC80: 50 µg/mL (≈ 248 µM)
Souris [12]
  mortalité: 80%
Souris [13]
  ptosis coté: 4
